Laboratory results taken from US20240299358A1, “COMPOSITIONS AND METHODS FOR DIAGNOSIS AND TREATMENT OF AUTOIMMUNE DISEASES” (DUKE UNIVERSITY, priority 2021, published 2024).

Experiments:
[1] = system: eHsp90; assay: Flow cytometry uptake of fluor-tethered Hsp90 inhibitors by T cells from human PBMCs; assay type: cell-based
Protocol: T-cell activation: PBMC aliquots (ZenBio SER-PBMC-F) were washed in RPMI-1640 with 10% FBS and PSG and then rested overnight in a T-75 flask. The suspended cells were then transferred to a fresh flask and activated in fresh RPMI-1640/10% FBS/PSG by 3:20,000 anti-CD3 (BioLegend 317303), 3:20,000 anti-CD28 (BioLegend 302913), and 1:10,000 (30 IU/mL) human IL-2 (CST 8907SC) and incubated for up to 72 hours. In the experiments with longer activation, samples were diluted 1:3 into fresh media containing hIL-2 at 72 hours post initial stimulation with CD3/CD28 antibodies.
Flow Cytometry: The activated/rested cells were plated into a 96-well round bottom plate and pelleted at low speed. Cells were resuspended in chilled media containing titrated HS-131 or HS-198 (in 1% DMSO) and stained for 30 minutes at RT. Fluorochrome tagged inhibitors and media were washed away with a PBS wash, followed by a PBS wash containing 3% NMS. Surface antibody stains were performed in 3% NMS/PBS for 30 minutes followed by PBS washes (2x). Samples were analyzed on BD FACSCanto II flow cytometer. Permeabilized samples were prepared as previously described followed by fixation in 4% Formaldehyde/PBS overnight at 4° C. Sample analysis was performed with Flowing Software and FlowJo.
A hallmark of T cell function is to proliferate rapidly in response to antigen presentation along with appropriate cytokine and costimulatory signaling. This leads to the induction of the chaperone machinery which is essential in facilitating this process. In some respects, antigen induced T cell proliferation may be analogous to oncogene driven metastasis. Therefore, to investigate whether proliferating T cells similarly express eHsp90 during T cell activation, their ability to absorb fluor-tethered Hsp90 inhibitors following an anti-CD3/CD28 challenge was examined (see. FIGS. 2A-2E). The structures of two types of fluor-tethered Hsp90 inhibitors (HS-131 and […]) that were used in the present studies are shown in FIG. 2A. […]

[2] = system: eHsp90; assay: In vivo tracking of eHsp90 expression in CIA mouse model of RA (flow cytometry, CryoViz imaging); conditions: 6 hours post tail vein injection, CD4 and CD8 T cells (FIG. 5B)
Protocol: FIG. 5A is a schematic of CIA mouse model of RA experimental design, wherein mice were inoculated with CIA on day 0) and 21. […] 6-hours post treatment mice were whole body cryopreserved. […] Gated regions indicate CD4 and CD8 T-Cell populations isolated from individual mice. eHsp90 expression in CD4 and CD8 T cells 6 hours post HS-131 or HS-198 treatment. N=3+SD. Experiments represent 3 biological replicates.
CIA Disease: Collagen was prepared at 4 mg/ml in 0.01 N acetic acid. Equal volumes of 4 mg/ml collagen and 5 mg/ml Freund's complete adjuvant were emulsified by hand mixing with syringes for approximately 5 min, at which point a bead of this material holds its form when placed in water. On study days 0 and 21, animals were anesthetized with isoflurane and given intradermal injections of a total of 400 μg of type II collagen in Freund's complete adjuvant at the base of the tail.
CryoViz™ Imaging: Whole mice were imaged at 10.23 μm×10.23 μm in-plane resolution using an Olympus MVX-10 microscope with a 1X objective and 0.63× magnification and 40 μm section thickness, using the Cryo Viz™ (BioInVision, Inc., Cleveland, USA). CryoViz™ is a fully automated, serial sectioning-and-imaging system which provides 3-dimensional, tiled, microscopic anatomical bright field and molecular fluorescence images over large fields-of-view such as a whole mouse. Images were acquired using a dual band FITC/TxRed fluorescence filter (Chroma, Inc., Rockingham, VT), a liquid crystal RGB filter and a low-noise monochrome camera. Raw images acquired by the Cryo Viz™ were processed to generate 3D color anatomical brightfield and molecular fluorescence volumes using the Cryo Viz™ Preprocessor software (BioIn Vision, Inc., Cleveland, Ohio). These 3D volumetric image data were then processed using the CryoViz™ 3D Visualizer software (BioInVision, Inc., Cleveland, USA) to obtain 3D reconstructed brightfield and fluorescence volume renderings and movies with 2D slice cutaway animations, showing the 2D/3D biodistribution of TxRed labeled HS-131 within the mouse volume.
This was consistently seen in cell culture, tumor cell xenografts and mouse models of spontaneous metastatic disease (Barrott et al. Chem Biol 20. 1187-1197 (2013)). […] To determine if this phenomenon occurred within the context of a fully functional immune system, the collagen induced arthritic (CIA) mouse model of human rheumatoid arthritis (RA) was utilized (Rice et al. Arthritis Rheum 58. 3765-3775 (2008)). Mice (DBA/IlacJ ˜8 weeks old) reliably develop polyarthritis when immunized against bovine type II collagen (Scarneo et al. Arthritis Res Ther 21, 292 (2019): Campbell et al., Ann Rheum Dis 56, 364-368 (1997)). The disease that occurs is usually non-symmetric, and any combination of paws/joints may be affected. Mice were injected […] with bovine collagen at Day (and then again 21 days later (FIG. 5A). This second injection triggered the development of the CIA related symptoms over the next several days within the joints. A primary mediator of local inflammatory responses in autoimmunity are invading T cell populations recognizing foreign antigens. To determine if invading T cells at sites of active disease expressed eHsp90, the animals were injected with HS-131 or HS-198. This was done at the peak of RA symptoms following the second immune challenge. After 6 hours, the animals were euthanized, immediately cryo-frozen in liquid nitrogen and cryo-sectioned (see, FIG. 5A).
Approximately, 500 40 μm slices were made and each slice imaged with both bright field and by fluorescence at Ex640 nm/Em680 nm. Evaluation of the biodistribution was then made by histological examination of individual slices and after in silico reconstruction of the entire mouse anatomy (see, FIGS. 5B-5E).

| SMILES | uptake of inactive analogue by stimulated T cells ([1]; 10 μM (FIG. 2D)) | probe signal (eHsp90 expression) in T cells of PBMC populations from CIA mice by flow cytometry [2] | fluor signal on competition with Hsp90 inhibitor ([1]; saturating dose, 10-fold excess of ganetespib over 10 μM HS-131 (FIG. 2D)) |
| --- | --- | --- | --- |
| Cc1nn(-c2ccc(C(=O)N(C)C)c(NCCCOCCOCCOCCOCCOCCCNCc3ccc(C(=C\C=C4/N(CCCCS(=O)(=O)O)c5ccccc5C4(C)C)/C=C/C4=[N+](CCCCS(=O)(=O)[O-])c5ccccc5C4(C)C)cc3)c2)c2c1C(=O)CC(C)(C)C2 [HS-198] | minimal uptake | No signal |  |
| CC(C)c1cc(-c2n[nH]c(=O)n2-c2ccc3c(ccn3C)c2)c(O)cc1O [ganetespib, reference compound] |  |  | effectively blocked |
